Measured values as given in US20250084082A1, “HUPERZINE B CRYSTAL AND PREPARATION AND APPLICATION THEREOF” (priority 2021, published 2025).

Legend:
[1] = Stability of crystals: high humidity test (RH 75±5%); assay type: physicochemical; details: around 25° C.
From the text: (§1) The conditions and methods for detecting the relevant substances involved in the present invention are high performance liquid chromatography determination.
The samples were taken and tested on day 5 and day 10, respectively, and the results were compared with that of day 0.

[2] = Stability of crystals: strong light irradiation test (4,500±500 Lx); assay type: physicochemical
From the text: as §1
The distance was adjusted so that the light intensity was 4,500±500 Lx. The samples were taken and tested on day 5 and day 10, respectively, and the results were compared with that of day 0.

[3] = biological target: T1, BuchE (Rattus norvegicus, UniProt Q9JKC1); test: Cholinesterase inhibitory activity in vivo: BuchE activity in rat serum after gavage; parameters: species or system SD rats
T1 construct: The effect of Huperzine B on BuchE activity in the serum of rats; from tissue; host or cells: SD rat serum (ex vivo after gavage)
Method: Experimental animals: SD rats, clean grade, male, body weight 180-200 g, provided by Shanghai SLAC Laboratory Animal Co., Ltd, free to drink and ingest during the experimental period, indoor temperature 22-24° C., humidity 45-70%.
Main reagents: S-Butyrylthiocholine iodide, S-Acetylthiocholine iodide, Kaumas Brilliant Blue, sodium hydroxide, ethyl carbamate (urethane), phosphoric acid, sodium chloride, sodium bicarbonate, potassium dihydrogen phosphate, ethanol, sodium dodecyl sulfate, 5,5′-Dithiobis-(2-nitrobenzoic acid) (DTNB), hydrochloric acid; the above chemical reagents were purchased from Sinopharm Chemical Reagent Co., Ltd. Physiological saline, product of Shanghai Bangjing Industry Co., Ltd; bovine serum albumin, purchased from Meilun Biologicals.
The equation for calculating the activity and the activity rate of “butyrylcholinesterase” was the same as that for “acetylcholinesterase”.
Statistical analysis: SPSS 18 statistical software and EXCEL were applied. Measurement data were expressed as “mean±standard deviation (x±s)”, t-test was used for comparison between two groups, and LSD method was used for pairwise comparison between groups when there was homogeneity of variance, and Dunnett's method was used for analysis when there was heterogeneity of variance. P<0.05 indicates significant differences.

[4] = Stability of crystals: high temperature test (60° C.); assay type: physicochemical
From the text: as §1
The samples were taken and tested on day 5 and day 10, respectively, and the results were compared with those on day 0.The results are shown in Table 5.

[5] = Hygroscopicity test (Chinese Pharmacopoeia 2020); assay type: physicochemical
Method: The test was carried out with reference to the requirements of hygroscopicity test in the General Technical Requirements of Part IV of the Chinese Pharmacopoeia 2020 Edition.
Methods: A dry stoppered glass weighing flask (outer diameter 50 mm, height 15 mm) was placed in a suitable 25° C.±1° C. constant temperature desiccator (with ammonium chloride or ammonium sulfate saturated solution placed in the lower part) or an artificial climate chamber (with a set temperature of 25° C.±1° C. and a relative humidity of 80%±2%) prior to the test, and the weight (m1) was weighed precisely.
The thickness of the test sample was generally 1 mm, and the weight (m2) was weighed precisely. The weighing flask was left open, and was placed in the above constant temperature and humidity conditions together with the cap of the flask for 24 hours.
The weighing flask was closed with the cap and weighed precisely (m3).

[6] = 25° C.±1° C., relative humidity 80%±2%, 24 hours

T1 sequence (Q9JKC1 24-597): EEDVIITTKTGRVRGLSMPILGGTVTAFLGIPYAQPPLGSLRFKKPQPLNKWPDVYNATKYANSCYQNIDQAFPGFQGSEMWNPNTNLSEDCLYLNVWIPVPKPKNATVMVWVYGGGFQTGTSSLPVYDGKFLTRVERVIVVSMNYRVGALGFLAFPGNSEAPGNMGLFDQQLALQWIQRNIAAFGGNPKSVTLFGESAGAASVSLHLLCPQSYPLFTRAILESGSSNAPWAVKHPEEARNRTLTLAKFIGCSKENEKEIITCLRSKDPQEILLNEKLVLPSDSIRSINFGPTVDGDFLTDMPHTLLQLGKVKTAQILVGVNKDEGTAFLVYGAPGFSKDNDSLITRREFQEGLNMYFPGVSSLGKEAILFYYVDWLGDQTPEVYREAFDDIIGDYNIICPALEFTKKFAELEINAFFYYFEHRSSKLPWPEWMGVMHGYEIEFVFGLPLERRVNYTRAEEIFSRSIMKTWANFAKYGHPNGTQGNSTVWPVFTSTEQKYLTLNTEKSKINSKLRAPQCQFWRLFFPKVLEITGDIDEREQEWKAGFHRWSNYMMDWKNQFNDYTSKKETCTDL

Compound	Appearance ([1]; day 0)	Content ([1]; day 0)	Moisture ([1]; day 0)	Appearance ([1]; day 5)	Content ([1]; day 5)	Moisture ([1]; day 5)	Appearance ([1]; day 10)	Content ([1]; day 10)	Moisture ([1]; day 10)	Appearance ([2]; day 0)	Content ([2]; day 0)	relevant substances ([2]; day 0)	Appearance ([2]; day 5)	Content ([2]; day 5)	relevant substances ([2]; day 5)	Appearance ([2]; day 10)	Content ([2]; day 10)	relevant substances ([2]; day 10)	Appearance ([4]; day 0)	Content ([4]; day 0)	also measured
CC1=CC2Cc3[nH]c(=O)ccc3C3(C1)NCCCC23 [Crystal form A, (4aR, 5R, 10bR)-1,2,3,4,4a,4,6,10b octahydro-12-methyl-5,10b-propeno-1,7-phenanthrolin-8 (7H)-one]	Off-white powder	100.1%	6.93%	Off-white powder	100.2%	6.95%	Off-white powder	99.9%	6.98%	Off-white powder	100.1%	0.12	Off-white powder	99.8%	0.22	Off-white powder	98.9%	0.28	Off-white	100.1%	effect on BuchE activity in the rat serum (in words) ([3]; rat serum): certain inhibitory effect; relevant substances ([4]; day 0): 0.12; Appearance ([4]; day 5): Off-white; Content ([4]; day 5): 100.2%; relevant substances ([4]; day 5): 0.19; Appearance ([4]; day 10): Off-white; Content ([4]; day 10): 99.7%; relevant substances ([4]; day 10): 0.21; Conclusion: (hygroscopicity) [5, 6]: No or almost no; Percentage of weight gain (%) [5, 6]: 0.05%; hygroscopicity (in words) ([5]; compared with Huperzine B crystal form B): low hygroscopicity
CC1=CC2Cc3[nH]c(=O)ccc3C3(C1)NCCCC23 [Crystal form B, (4aR, 5R, 10bR)-1,2,3,4,4a,4,6,10b octahydro-12-methyl-5,10b-propeno-1,7-phenanthrolin-8 (7H)-one]	Off-white powder	99.8%	6.13%	Off-white powder	99.7%	7.13%	Off-white powder	99.6%	7.53%	Off-white powder	99.8%	0.18	Off-white powder	99.5%	0.32	Off-white powder	98.6%	0.49	Off-white	99.8%	relevant substances ([4]; day 0): 0.18; Appearance ([4]; day 5): Off-white; Content ([4]; day 5): 99.5%; relevant substances ([4]; day 5): 0.29; Appearance ([4]; day 10): Off-white; Content ([4]; day 10): 98.9%; relevant substances ([4]; day 10): 0.41; Percentage of weight gain (%) [5, 6]: 2.88%
CC1=CC2Cc3[nH]c(=O)ccc3C3(C1)NCCCC23 [hupB, (4aR, 5R, 10bR)-1,2,3,4,4a,4,6,10b octahydro-12-methyl-5,10b-propeno-1,7-phenanthrolin-8 (7H)-one]																					inhibition at 0.12 mg/kg ([3]; po, rat serum BuchE, 0.12 mg/kg by gavage, x±s, read-out: Inhibition rate (%)): 1 ± 46.5%; inhibition at 0.24 mg/kg ([3]; po, rat serum BuchE, 0.24 mg/kg by gavage, x±s, read-out: Inhibition rate (%)): 19.9 ± 28.1%; inhibition at 0.48 mg/kg ([3]; po, rat serum BuchE, 0.48 mg/kg by gavage, x±s, read-out: Inhibition rate (%)): 29.2 ± 13.7%; Serum BuchE (nmol/min/mg protein) ([3]; rat serum, 0.12 mg/kg by gavage, x±s): 6.83 ± 3.21 nmol/min/mg protein; Serum BuchE (nmol/min/mg protein) ([3]; rat serum, 0.24 mg/kg by gavage, x±s): 5.53 ± 1.94 nmol/min/mg protein; Serum BuchE (nmol/min/mg protein) ([3]; rat serum, 0.48 mg/kg by gavage, x±s): 4.88 ± 0.94 nmol/min/mg protein
